Assay results from US11731967B2, “Inhibitors of TRIM33 and methods of use” (Dana-Farber Cancer Institute, Inc., priority 2017, dated 2023).
pIC50: −log10 of the molar value. Read-outs that look alike come from different tables or passages of the source.

Columns and labels:
[1] = test system: recombinant PHD-bromodomain module of TRIM33; assay: AlphaScreen binding assay, TRIM33 with biotinylated H3K9me3K18ac peptide; conditions: compounds shown in Table 2a
Source text: (§1) The IC50 or EC50 of the compound of the present application can be determined by various methods known in the art. For example, the IC50 or EC50 of the compound of the present application can be measured by an AlphaScreen assay, as described herein (see FIG. 1).
(§2) A compound of the present application can be tested for its TRIM33 and/or TRIM24 activity with AlphaScreen Assay illustrated in FIG. 1.
(§3) Additionally, a second AlphaScreen® binding assay for TRIM24 as counter-screening assay for selectivity of TRIM33 over TRIM24 was developed. A focused compound libraries for TRIM33 inhibitor development was designed and synthesized using the design principle that is to connect the bromodomain binding motif/fragment to proper chemical scaffold via multi-component reactions, such as Groebke-Blackburn-Bienaymé (GBB) coupling reaction, to establish chemically bias library.
(§4) With multiple libraries synthesized (˜400 compounds) as described above, compounds were screened against TRIM33 and TRIM24 by AlphaScreen to establish structure activity relationship (SAR).

[2] = target: T1, recombinant PHD-bromodomain module of TRIM33 (Homo sapiens, UniProt Q9UPN9); assay: as above
T1 construct: rows headed: TRIM33 modulating activity; unit not given
T1 sequence (Q9UPN9 1-1127): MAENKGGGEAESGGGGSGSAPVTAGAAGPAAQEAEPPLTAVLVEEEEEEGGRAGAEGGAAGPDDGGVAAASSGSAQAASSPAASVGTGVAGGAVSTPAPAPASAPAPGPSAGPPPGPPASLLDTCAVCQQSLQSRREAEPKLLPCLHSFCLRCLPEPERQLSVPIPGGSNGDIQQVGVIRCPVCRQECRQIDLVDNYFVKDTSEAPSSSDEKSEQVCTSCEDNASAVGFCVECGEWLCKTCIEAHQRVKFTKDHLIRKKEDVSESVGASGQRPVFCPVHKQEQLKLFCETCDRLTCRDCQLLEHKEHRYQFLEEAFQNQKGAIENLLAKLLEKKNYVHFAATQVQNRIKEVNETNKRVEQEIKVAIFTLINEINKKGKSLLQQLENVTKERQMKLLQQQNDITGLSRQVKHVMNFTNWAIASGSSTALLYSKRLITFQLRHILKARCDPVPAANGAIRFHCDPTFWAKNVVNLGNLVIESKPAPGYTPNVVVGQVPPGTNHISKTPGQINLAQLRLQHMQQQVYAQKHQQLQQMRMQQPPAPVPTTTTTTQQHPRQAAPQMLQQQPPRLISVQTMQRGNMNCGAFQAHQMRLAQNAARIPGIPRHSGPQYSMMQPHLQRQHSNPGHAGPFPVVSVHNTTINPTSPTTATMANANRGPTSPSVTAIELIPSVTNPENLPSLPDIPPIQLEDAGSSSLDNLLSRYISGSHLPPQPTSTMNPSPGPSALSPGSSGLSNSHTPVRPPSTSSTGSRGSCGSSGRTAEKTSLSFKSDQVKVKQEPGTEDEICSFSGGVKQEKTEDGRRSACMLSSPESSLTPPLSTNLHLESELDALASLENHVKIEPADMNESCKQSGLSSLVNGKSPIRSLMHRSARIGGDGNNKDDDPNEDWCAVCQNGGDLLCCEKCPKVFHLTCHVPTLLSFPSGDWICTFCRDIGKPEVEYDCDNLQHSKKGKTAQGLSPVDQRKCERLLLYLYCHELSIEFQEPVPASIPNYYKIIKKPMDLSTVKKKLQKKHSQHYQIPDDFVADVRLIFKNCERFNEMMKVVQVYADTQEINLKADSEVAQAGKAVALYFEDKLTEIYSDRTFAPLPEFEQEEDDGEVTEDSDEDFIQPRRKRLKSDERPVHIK
Source text: as §1, §2, §3, §4

[3] = target: T2, TRIM24 (Homo sapiens, UniProt O15164); assay: AlphaScreen binding assay for TRIM24 (counter-screening assay)
T2 sequence (O15164 1-1050): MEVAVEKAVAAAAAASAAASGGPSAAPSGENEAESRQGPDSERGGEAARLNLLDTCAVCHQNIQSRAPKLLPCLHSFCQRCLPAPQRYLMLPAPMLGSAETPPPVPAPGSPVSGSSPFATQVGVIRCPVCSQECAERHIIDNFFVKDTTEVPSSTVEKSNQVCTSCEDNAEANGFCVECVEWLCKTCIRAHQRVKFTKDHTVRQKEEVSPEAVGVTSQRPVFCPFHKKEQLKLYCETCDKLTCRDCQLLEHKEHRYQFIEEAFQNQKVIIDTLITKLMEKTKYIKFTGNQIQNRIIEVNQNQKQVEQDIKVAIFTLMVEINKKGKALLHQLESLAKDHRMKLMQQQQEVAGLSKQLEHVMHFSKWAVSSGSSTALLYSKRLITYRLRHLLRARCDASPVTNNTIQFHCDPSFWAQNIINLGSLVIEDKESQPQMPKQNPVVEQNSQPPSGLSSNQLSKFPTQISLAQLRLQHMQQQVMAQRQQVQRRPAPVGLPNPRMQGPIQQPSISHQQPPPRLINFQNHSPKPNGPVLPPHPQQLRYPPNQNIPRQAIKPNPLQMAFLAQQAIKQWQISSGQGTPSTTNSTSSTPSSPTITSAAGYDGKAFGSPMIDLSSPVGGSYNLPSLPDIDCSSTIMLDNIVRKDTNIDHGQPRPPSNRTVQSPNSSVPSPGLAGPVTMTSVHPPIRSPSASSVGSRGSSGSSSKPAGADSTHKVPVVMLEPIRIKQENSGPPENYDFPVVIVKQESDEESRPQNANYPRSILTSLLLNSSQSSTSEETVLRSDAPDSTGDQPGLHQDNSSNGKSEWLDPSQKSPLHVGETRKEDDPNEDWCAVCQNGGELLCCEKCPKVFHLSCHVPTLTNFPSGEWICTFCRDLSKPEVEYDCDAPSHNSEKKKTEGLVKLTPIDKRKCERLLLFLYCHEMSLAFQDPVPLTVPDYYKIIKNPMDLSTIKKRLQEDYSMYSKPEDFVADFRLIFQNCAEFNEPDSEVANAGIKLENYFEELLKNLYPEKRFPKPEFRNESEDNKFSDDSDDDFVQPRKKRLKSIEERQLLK
Source text: as §2, §3, §4

[4] = compounds shown in Table 2a, called TRIM33 IC50 in title of Table 5, unit inferred, read-out: TRIM33 modulating activity
[5] = compounds with R7/R7′ shown in FIG. 11A (Table 6), read-out: IC50 TRIM24
[6] = compounds with R7/R7′ shown in FIG. 11A (Table 6), read-out: IC50 TRIM33
[7] = compounds shown in FIG. 14A (Table 8), read-out: TRIM 33 IC50
[8] = compounds shown in FIG. 13A (Table 7), read-out: TRIM 24 IC50
[9] = compounds shown in FIG. 13A (Table 7), read-out: TRIM 33 IC50
[10] = compounds shown in FIG. 14A (Table 8), read-out: TRIM 24 IC50

SMILES | Ratio of TRIM24 IC50 over TRIM33 IC50 [1] | pIC50 [2, 4] | further results
COc1ccc(CCNc2c(-c3c[nH]c(C)n3)nc3ccccn23)cc1OC [Compound A2] | 32.77 | 5.87 | 
COc1ccc(CCNc2c(-c3c[nH]c(C)n3)nc3cnccn23)cc1OC [Compound A8] |  | 3.57 | 
COCCNc1c(-c2c[nH]c(C)n2)nc2cnccn12 [Compound A9] | 321.31 | 3.54 | 
Cc1[nH]cnc1-c1nc2cnccn2c1NC1CCCCC1 [Compound B7] | 0.78 | 3.93 | 
COc1ccc(CCNc2c(-c3nc[nH]c3C)nc3cnccn23)cc1OC [Compound B8] | 1276.41 | 4.35 | pIC50 [3, 5]: 6.65; pIC50 [2, 6]: 6.55
COc1ccc(CCNc2c(-c3ccc4nccn4c3)nc3ccccn23)cc1OC [Compound C2] | 60.92 | 4.60 | 
CCCOc1ccn2c(C(C)=O)cc(-c3nc4cnccn4c3NCCOC)c2c1 [Compound D9] | 20.66 | 3.86 | 
COc1ccc(CCNc2c(-c3c[nH]c(C)n3)nc3ccc(Br)cn23)cc1OC [Compound E8] | 18.38 | 5.46 | 
CCCOc1ccn2c(C(C)=O)cc(-c3ccccc3S(C)(=O)=O)c2c1 [GS-A, reference compound] |  | 4.29 | 
Cc1sc2c(c1C)C(c1ccc(Cl)cc1)=N[C@@H](CC(=O)NCCCCCCCCNC(=O)COc1cccc3c1C(=O)N(C1CCC(=O)NC1=O)C3=O)c1nnc(C)n1-2 (stereo partly drawn) [dBET6, reference compound] |  |  | pIC50 [3, 5]: 5.71; pIC50 [2, 6]: 5.33
Cc1[nH]cnc1-c1nc2ccccn2c1NCCN1CCOCC1 [pck-9295-013] |  |  | pIC50 [3, 8]: 6.13; pIC50 [2, 9]: 5.42
COc1ccc(Nc2c(-c3nc[nH]c3C)nc3ccccn23)cc1 [pck-9295-014] |  |  | pIC50 [3, 8]: 6.45; pIC50 [2, 9]: 6.19
COc1ccc(Nc2c(-c3c[nH]c(C)n3)nc3ccc(Br)cn23)cc1 [pck-9295-016] |  |  | pIC50 [3, 8]: 6.09; pIC50 [2, 9]: 6.27
CC(C)(C)Nc1c(-c2c(O)ccc3ccccc23)nc2ccccn12 [pck-9295-029] |  |  | pIC50 [3, 8]: 5.11; pIC50 [2, 9]: 5.13
COCCNc1c(-c2ccco2)nc2ccc(C(=O)OC)cn12 [pck-9295-032] |  |  | pIC50 [2, 9]: 4.66
CCOC(=O)CNc1c(-c2ccco2)nc2ccc(C(=O)OC)cn12 [pck-9295-035] |  |  | pIC50 [3, 8]: 5.28; pIC50 [2, 9]: 4.97
COC(=O)c1ccc2nc(-c3nc[nH]c3C)c(NCCN3CCOCC3)n2c1 [pck-9295-060] |  |  | pIC50 [3, 10]: 6.51; pIC50 [2, 7]: 5.71
Cc1nc[nH]c1-c1nc2ccc(C(=O)NN)cn2c1NCCN1CCOCC1 [pck-9295-134] |  |  | pIC50 [3, 10]: 6.52; pIC50 [2, 7]: 5.89
COc1ccc(CCNc2c(-c3nc(C)n4ccccc34)nc3ccccn23)cc1OC [pck-9295-173] |  |  | pIC50 [3, 10]: 5.02; pIC50 [2, 7]: 4.35
COc1ccc(CCNc2c(-c3cn(S(=O)(=O)c4ccc(C)cc4)c4ccccc34)nc3ccccn23)cc1OC [pck-9295-174] |  |  | pIC50 [3, 10]: 6.23; pIC50 [2, 7]: 6.26
COC(=O)c1ccc2nc(-c3cn(S(=O)(=O)c4ccc(C)cc4)c4ccccc34)c(NCc3ccccc3)n2c1 [pck-9295-175] |  |  | pIC50 [3, 10]: 6.38; pIC50 [2, 7]: 6.50

Now from value to compound, other results behind:

Ratio of TRIM24 IC50 over TRIM33 IC50 [1] | pIC50 [2, 4] | SMILES | further results
7.89 | 4.74 | COC(=O)c1ccc2nc(-c3nc[nH]c3C)c(NC3CCCCC3)n2c1 [Compound F1] | 
29.84 | 4.90 | COC(=O)c1ccc2nc(-c3nc[nH]c3C)c(NCCc3ccc(OC)c(OC)c3)n2c1 [Compound F2] | 
11.61 | 4.36 | COCCNc1c(-c2nc[nH]c2C)nc2ccc(C(=O)OC)cn12 [Compound F3] | 
3.62 | 4.43 | COCCNc1c(-c2nc[nH]c2C)nc2ccc(Br)cn12 [Compound F9] | 
4.48 | 4.58 | Cc1[nH]cnc1-c1nc2ccc(Br)cn2c1NCCN1CCOCC1 [Compound F10] | 
78.61 | 3.45 | COCCNc1c(-c2ccc3nccn3c2)nc2ccc(C(=O)OC)cn12 [Compound G3] | 
0.83 | 3.92 | Brc1ccc2nc(-c3ccc4nccn4c3)c(NC3CCCCC3)n2c1 [Compound G7] | 
6.43 | 3.67 | Brc1ccc2nc(-c3ccc4nccn4c3)c(NCCN3CCOCC3)n2c1 [Compound G10] | 
7.82 | 4.49 | CCCOc1ccn2c(C(C)=O)cc(-c3nc4ccc(C(=O)OC)cn4c3NC3CCCCC3)c2c1 [Compound H1] | 
463.20 | 4.91 | CCCOc1ccn2c(C(C)=O)cc(-c3nc4ccc(C(=O)OC)cn4c3NCCc3ccc(OC)c(OC)c3)c2c1 [Compound H2] | 
37.43 | 4.11 | CCCOc1ccn2c(C(C)=O)cc(-c3nc4ccc(C(=O)OC)cn4c3NCCOC)c2c1 [Compound H3] | 
 | 4.98 | CCCOc1cc(OCCCCN(C)C)cc(Oc2cc3c(cc2NS(=O)(=O)c2ccc(OC)c(OC)c2)n(C)c(=O)n3C)c1 [IACS9571, reference compound] | pIC50 [2, 7]: 5.20; pIC50 [2, 6]: 4.87
